# Data from patent US10294202B2, “Pyrrolidinones as herbicides” (FMC Corporation, priority 2013, dated 2019).
# Tests used:
# bluegrass = test: Test D pre-/postemergence herbicide test; type: in vivo, Poa annua; conditions: for Plant response rating, Bluegrass: scale 0 to 100 (0 no effect, 100 complete control); for Plant response rating: Bluegrass, scale 0 to 100
# Source text: Seeds of plant species selected from bluegrass (annual bluegrass, Poa annua), blackgrass (Alopecurus myosuroides), canarygrass (littleseed canarygrass, Phalaris minor), chickweed (common chickweed, Stellaria media), galium (catchweed bedstraw, Galium aparine), bromegrass, downy (downy bromegrass, Bromus tectorum), field poppy (Papaver rhoeas), field violet (Viola arvensis), foxtail, green (green foxtail, Setaria viridis), deadnettle (henbit deadnettle, Lamium amplexicaule), ryegrass, Italian (Italian ryegrass, Lolium multiflorum), kochia (Kochia scoparia), lambsquarters (Chenopodium album), oilseed rape (Brassica napus), pigweed (Amaranthus retroflexus), chamomile (scentless chamomile, Matricaria inodora), Russian thistle (Salsola kali), speedwell (bird's-eye speedwell, Veronica persica), barley, spring (spring barley, Hordeum vulgare), wheat, spring (spring wheat, Triticum aestivum), buckwheat, wild (wild buckwheat, Polygonum convolvulus), mustard, wild (wild mustard, Sinapis arvensis), oat, wild (wild oat, Avena fatua), radish, wild (wild radish, Raphanus raphanistrum), […]), barley, winter (winter barley, Hordeum vulgare), and wheat, winter (winter wheat, Triticum aestivum) were planted into a silt loam soil and treated preemergence with test chemicals formulated in a non-phytotoxic solvent mixture which included a surfactant. At the same time, these species were planted in pots containing Redi-Earth® planting medium (Scotts Company, 14111 Scottslawn Road, Marysville, Ohio 43041) comprising spaghnum peat moss, vermiculite, wetting agent and starter nutrients and treated with postemergence applications of the test chemicals formulated in the same manner. Plants ranged in height from 2 to 18 cm (1- to 4-leaf stage). Treated plants and controls were maintained in a controlled growth environment for 7 to 21 days after which time all species were compared to controls and visually evaluated. Plant response ratings, summarized in Table D, are based on a scale of 0 to 100 where 0 is no effect and 100 is complete control. A dash (-) response means no test result.
# arrowleaf sida = test: Test E preemergence herbicide test; type: in vivo, Sida rhombifolia; design: key: 0 = no effect, 100 = complete control
# Source text: (§1) Seeds of plant species selected from corn (Zea mays), soybean (Glycine max), velvetleaf (Abutilon theophrasti), lambsquarters (Chenopodium album), wild poinsettia (Euphorbia heterophylla), pigweed, palmer (palmer pigweed, Amaranthus palmeri), waterhemp (common waterhemp, Amaranthus rudis), surinam grass (Brachiaria decumbens), crabgrass, large (large crabgrass, Digitaria sanguinalis), crabgrass, Brazil (Brazilian crabgrass, Digitaria horizontalis), panicum, fall (fall panicum, Panicum dichotomiflorum), foxtail, giant (giant foxtail, Setaria faberii), foxtail, green (green foxtail, Setaria viridis), goosegrass (Eleusine indica), johnsongrass (Sorghum halepense), ragweed (common ragweed, Ambrosia elatior), barnyardgrass (Echinochloa crus-galli), sandbur (southern sandbur, Cenchrus echinatus), arrowleaf […] rhombifolia), ryegrass, Italian (Italian ryegrass, Lolium multiflorum), dayflower, VA (Virginia dayflower, Commelina virginica), field bindweed (Convolvulus arvensis), morningglory (Ipomoea coccinea), nightshade (eastern black nightshade, Solanum ptycanthum), kochia (Kochia scoparia), nutsedge, yellow (yellow nutsedge, Cyperus esculentus), cocklebur (common cocklebur, Xanthium strumarium), smartweed (ladysthumb smartweed, Polygonum Persicaria) and beggarticks (hairy beggarticks, Bidens pilosa), were planted into a silt loam soil and treated preemergence with test chemicals formulated in a non-phytotoxic solvent mixture which included a surfactant. Treated plants and controls were maintained in a greenhouse for 21 days, after which time all species were compared to controls and visually evaluated. Plant response ratings, summarized in Table E, are based on a scale of 0 to 100 where 0 is no effect and 100 is complete control. A dash (-) response means no test result.
# dayflower, VA = test: Test E preemergence herbicide test; type: in vivo, Commelina virginica; design: key: 0 = no effect, 100 = complete control
# Source text: as §1
# beggarticks = test: Test E preemergence herbicide test; type: in vivo, Bidens pilosa; design: key: 0 = no effect, 100 = complete control
# Source text: as §1
# foxtail, green = test: Test C pre-/postemergence herbicide test; type: in vivo, Setaria viridis; conditions: Postemergence
# Source text: Seeds of plant species selected from blackgrass (Alopecurus myosuroides), ryegrass, Italian (Italian ryegrass, Lolium multiflorum), wheat (winter wheat, Triticum aestivum), galium (catchweed bedstraw, Galium aparine), corn (Zea mays), crabgrass, large (large crabgrass, Digitaria sanguinalis), foxtail, giant (giant foxtail, Setaria faberii), johnsongrass (Sorghum halepense), lambsquarters (Chenopodium album), morningglory (Ipomoea coccinea), nutsedge, yellow (yellow nutsedge, Cyperus esculentus), pigweed (Amaranthus retroflexus), ragweed (common ragweed, Ambrosia elatior), soybean (Glycine max), barnyardgrass (Echinochloa crus-galli), oilseed rape (Brassica napus), waterhemp (common waterhemp, Amaranthus rudis), kochia (Kochia scoparia), oat, wild (wild oat, Avena fatua), surinam grass (Brachiaria decumbens), foxtail, green (green foxtail, Setaria viridis), goosegrass (Eleusine indica), bromegrass, downy (downy bromegrass, Bromus tectorum), nightshade (eastern black nightshade, Solanum ptycanthum), cocklebur (common cocklebur, Xanthium strumarium), cupgrass, woolly (woolly cupgrass, Eriochloa villosa), bermudagrass (Cynodon dactylon), sunflower, (common oilseed sunflower, Helianthus annuus), Russian thistle (Salsola kali) and velvetleaf (Abutilon theophrasti) were planted into a blend of loam soil and sand and treated preemergence with test chemicals formulated in a non-phytotoxic solvent mixture which included a surfactant. At the same time, plants selected from these crop and weed species and also barley (winter barley, Hordeum vulgare), […]), chickweed (common chickweed, Stellaria media), deadnettle (henbit deadnettle, Lamium amplexicaule), and canarygrass (littleseed canarygrass, Phalaris minor) were planted in pots containing Redi-Earth® planting medium (Scotts Company, 14111 Scottslawn Road, Marysville, Ohio 43041) comprising spaghnum peat moss, vermiculite, wetting agent and starter nutrients and treated with postemergence applications of test chemicals formulated in the same manner. Plants ranged in height from 2 to 18 cm (1- to 4-leaf stage) for postemergence treatments. Treated plants and controls were maintained in a greenhouse for 13 to 15 days, after which time all species were compared to controls and visually evaluated. Plant response ratings, summarized in Table C, are based on a scale of 0 to 100 where 0 is no effect and 100 is complete control. A dash (-) response means no test result.
SMILES,"Plant response rating, Bluegrass (bluegrass; Preemergence, 62 g ai/ha)","Plant response rating, Bluegrass (bluegrass; Preemergence, 31 g ai/ha)","Plant response rating (bluegrass; Preemergence, 125 g ai/ha)","Plant response rating (bluegrass; Preemergence, 250 g ai/ha)","Plant response rating, Arrowleaf Sida (arrowleaf sida; 31 g ai/ha)","Plant response rating, Arrowleaf Sida (arrowleaf sida; 62 g ai/ha)","Plant response rating, Arrowleaf Sida (arrowleaf sida; 125 g ai/ha)","Plant response rating, Arrowleaf Sida (arrowleaf sida; 250 g ai/ha)","Plant response rating, Dayflower, VA (dayflower, VA; 31 g ai/ha)","Plant response rating, Dayflower, VA (dayflower, VA; 62 g ai/ha)","Plant response rating, Dayflower, VA (dayflower, VA; 125 g ai/ha)","Plant response rating, Dayflower, VA (dayflower, VA; 250 g ai/ha)","Plant response rating, Beggarticks (beggarticks; 31 g ai/ha)","Plant response rating, Beggarticks (beggarticks; 62 g ai/ha)","Plant response rating, Beggarticks (beggarticks; 125 g ai/ha)","Plant response rating, Beggarticks (beggarticks; 250 g ai/ha)","Plant response rating (bluegrass; Postemergence, 31 g ai/ha)","Plant response rating (bluegrass; Postemergence, 62 g ai/ha)","Plant response rating (bluegrass; Postemergence, 125 g ai/ha)","Plant response rating (bluegrass; Postemergence, 250 g ai/ha)",other results
O=C1NCC(c2ccc(F)c(C(F)(F)F)c2)C1C(=O)Nc1cccc(F)c1F (racemic) [Compound 77],5,0,45,55,–,–,–,–,–,–,–,–,–,–,–,–,–,–,–,–,–
O=C1NC[C@H](c2cccc(C(F)(F)F)c2)[C@H]1C(=O)Nc1cccc(F)c1F [Compound 206],30,0,–,70,0,0,10,50,0,0,0,20,0,0,0,0,–,–,–,–,"Plant response rating, Bluegrass (bluegrass; Preemergence, 125 g ai/ha): 35"
O=C1NCC(c2ccc(C(F)(F)F)cc2)C1C(=O)Nc1cccc(F)c1F (racemic) [Compound 202],25,10,65,70,0,30,70,80,0,0,0,40,0,0,35,80,0,10,10,15,–
O=C1NCC(c2cc(F)c(F)cc2F)C1C(=O)Nc1cccc(F)c1F (stereo not drawn) [Compound 50],0,0,0,–,–,–,–,–,–,–,–,–,–,–,–,–,0,0,0,–,"Plant response rating (bluegrass; Postemergence, 16 g ai/ha): 0; Plant response rating, Bluegrass (bluegrass; Preemergence, 16 g ai/ha): 0; Plant response rating, Foxtail, Green (foxtail, green; 31 g ai/ha, scale 0 (no effect) to 100 (complete control)): 0; Plant response rating, Foxtail, Green (foxtail, green; 62 g ai/ha, scale 0 to 100 (0 no effect, 100 complete control)): 0; Plant response rating, Foxtail, Green (foxtail, green; 125 g ai/ha, scale 0 to 100 (0 no effect, 100 complete control)): 0; Plant response rating, Foxtail, Green (foxtail, green; 250 g ai/ha, scale 0 to 100 (0 no effect, 100 complete control)): 30"
O=C1NCC(c2ccc(C(F)(F)F)cc2)C1C(=O)Nc1ccccc1F (stereo not drawn) [Compound 231],0,5,–,25,–,–,–,–,–,–,–,–,–,–,–,–,5,10,10,10,"Plant response rating, Bluegrass (bluegrass; Preemergence, 125 g ai/ha): 15"
"O=C1NCC(c2ccc(C(F)(F)F)cc2)C1C(=O)Nc1cccc(F)c1F (stereo not drawn) [Compound 80, N-(2,3-difluorophenyl)-2-oxo-4-[4-(trifluoromethyl)phenyl]-3-pyrrolidinecarboxamide]",10,0,20,45,0,0,0,10,0,0,0,0,0,0,20,60,5,10,15,10,"Plant response rating, Arrowleaf Sida (arrowleaf sida; 16 g ai/ha): 0; Plant response rating, Dayflower, VA (dayflower, VA; 16 g ai/ha): 0; Plant response rating, Beggarticks (beggarticks; 16 g ai/ha): 0"
O=C1NCC(c2ccc(OC(F)F)cc2)C1C(=O)Nc1cccc(F)c1F (racemic) [Compound 350],–,–,–,–,0,0,20,50,0,0,0,40,0,0,20,20,–,–,–,–,–
O=C1NCC(c2ccc(F)c(F)c2)C1C(=O)Nc1ccccc1C(F)(F)F (racemic) [Compound 6],0,0,0,0,–,–,–,–,–,–,–,–,–,–,–,–,0,0,0,0,"Plant response rating (bluegrass; Postemergence, 16 g ai/ha): 0; Plant response rating, Bluegrass (bluegrass; Preemergence, 16 g ai/ha): 0"
